Source: US6410706B1, “Nucleic acid encoding chitin-binding receptor kinase” (Korea Research Institute of Bioscience and Biotechnology, priority 1999, dated 2002)

Target: recombinant chitinase domain of receptor kinase CHRK1 (amino acid residues 1 to 359 of SEQ ID NO: 1) (Nicotiana tabacum, UniProt Q9SWX8)
Experiment: Fluorescence polarization chitin-binding assay with Scatchard plot analysis
Conditions: excitation 318 nm, emission 373 nm; for binding to the chitinase domain, seen as change in polarization value: fluorescence polarization, thioredoxin control did not increase
Description: The chitinase activity and the chitin-binding activity of receptor kinase CHRK1 in this invention are analysed using its recombinant chitinase domain. Consequently, the recombinant chitinase domain has a chitin-binding activity and lacks a chitinase activity.
In order to examine the chitinase activity of receptor kinase […], the recombinant chitinase domain corresponding to amino acid residues 1 to 359 of SEQ. ID NO: 1 was purified from E. coli, and its chitinase activity was estimated by fluorescence polarization assay.
As a result of Scratchard plot analysis, dissociation constant (kd) value of MU-chitotriose was estimated to be 800 nM. In case of using MU-chitotriose or MU-chitotetrose probe without fluorophor as a competitor, binding activity between the chitinase domain and MU-chitotriose or MU-chitotetrose conjugated with fluorophor was inhibited by the competitor. Consequently, the initial polarization value was decreased.

recombinant chitinase domain of receptor kinase CHRK1 (amino acid residues 1 to 359 of SEQ ID NO: 1), sequence (Q9SWX8 entry or part of it): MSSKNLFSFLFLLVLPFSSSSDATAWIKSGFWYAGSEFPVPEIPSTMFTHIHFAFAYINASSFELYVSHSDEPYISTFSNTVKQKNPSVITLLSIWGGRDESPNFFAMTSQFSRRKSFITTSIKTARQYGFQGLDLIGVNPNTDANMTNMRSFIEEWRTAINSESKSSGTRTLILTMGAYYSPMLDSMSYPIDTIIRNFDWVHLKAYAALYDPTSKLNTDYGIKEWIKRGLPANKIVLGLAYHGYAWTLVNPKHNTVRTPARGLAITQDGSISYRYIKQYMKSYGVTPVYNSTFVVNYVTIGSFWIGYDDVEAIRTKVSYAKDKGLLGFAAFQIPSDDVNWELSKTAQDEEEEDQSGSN

Compound	Kd (Scratchard plot analysis of fluorescence polarization, chitinase domain purified from E. coli, read-out: dissociation constant (kd)) [nM]	binding to the chitinase domain, seen as change in polarization value
CC(=O)N[C@H]1[C@H](Oc2ccc3c(C)cc(=O)oc3c2)O[C@H](CO)[C@@H](O[C@@H]2O[C@H](CO)[C@@H](O[C@@H]3O[C@H](CO)[C@@H](O)[C@H](O)[C@H]3NC(C)=O)[C@H](O)[C@H]2NC(C)=O)[C@@H]1O [MU-chitotriose]	800	increased polarization value
CC(=O)NC1C(OC2C(CO)OC(OC3C(CO)OC(OC4C(CO)OC(Oc5ccc6c(C)cc(=O)oc6c5)C(NC(C)=O)C4O)C(NC(C)=O)C3O)C(NC(C)=O)C2O)OC(CO)C(O)C1O (stereo not drawn) [Mu-chitotetrose]	–	increased polarization value
